Results: PMC7169845, “Synthesis and Bioactivity of Phthalimide Analogs as Potential Drugs to Treat Schistosomiasis, a Neglected Disease of Poverty” (Pharmaceuticals, 2020)

Legend:
[1] = test system: HepG2-A16-CD81EGFP cells; test: HepG2 cell cytotoxicity assay (CellTiter-Glo); assay type: cell-based; conditions: Homo sapiens, 72 h
Protocol: HepG2-A16-CD81EGFP cells (human hepatocarcinoma HepG2 cells stably transformed to express the tetraspanin CD81 receptor [51, 52]) were cultured at 37 °C in 5% CO2 in DMEM (without phenol red; Thermo Fisher Scientific, Waltham, MA, USA) supplemented with 10% FBS, 0.29 mg/mL glutamine, 100-unit penicillin and 100 μg/mL streptomycin. For cytotoxicity assays, compounds were prepared in 12-point 1:3 serial dilutions in DMSO starting at 10 mM. Then, 50 nL of compound (0.5% final DMSO concentration) were transferred with an Acoustic Transfer System (ATS) (Biosero) into white, solid bottom 1536-well assay plates (Greiner BioOne custom GNF mold; Monroe, NC, USA). Puromycin (12-point serial dilution starting at 10 μM) and 0.5% DMSO were used as positive and negative controls, respectively. After addition of compound, HepG2-A16-CD81EGFP cells in 10 µL of the above medium (5% FBS) were seeded into the assay plates at a density of 3,000 cells per well. Assay plates were incubated at 37 °C in 5% CO2for 72 h. To assess the HepG2 viability, the assay medium was removed by inverted centrifugation of the plate at 150 xg for 30 s. Then, 2 μL per well of CellTiter-Glo reagent (Promega diluted 1:2 with deionized water) was added using a MicroFlo liquid handler (BioTek). Immediately after addition of the CellTiter-Glo reagent, the luminescence was measured with an EnVision Multilabel reader (PerkinElmer). EC50 values were calculated using the normalized bioluminescence intensity and a non-linear, variable slope, four-parameter regression curve-fitting model in Prism 5 (GraphPad Software Inc., San Diego, CA, USA).

[2] = test system: S. mansoni adults; test: Phenotypic screen of S. mansoni adult worms (severity score); assay type: cell-based, Schistosoma mansoni
Protocol: (§1) Functionalized Pht-based molecules were synthesized, and phenotypically screened at 10 µM as a function of time against S. Mansoni somules (up to 72 h) and adults (up to 24 h). The resulting phenotypes were classified using a previously described nomenclature that records the many non-exclusive changes (descriptors) that can occur in the parasite in response to chemical insult. Each descriptor is converted into a value from 0 (no effect) to 4 (maximal effect) to allow for comparisons of effects on the parasite between compounds [40, 41, 42, 43]. For consistency, we consider a score of 2 to be the minimum for a compound to be considered active.
(§2) Maintenance of the S. mansoni (Naval Medical Research Institute (NMRI) isolate), life cycle involved male Golden Syrian Hamsters and Biomphalaria glabrata snails (NMRI isolate), as the definitive and intermediate hosts, respectively. Use of hamsters was approved by the Institutional Animal Care and Use Committee of the University of California San Diego. The preparation of somules (post-infective larvae derived from infectious larvae called cercariae) and adult worms (≥42-days-old), and their co-incubation with test compounds using a customized Basch incubation medium were as described. Screens of two developmental stages were employed in order to identify compounds with a potential broader spectrum of efficacy than the current drug, PZQ, which is deficient in this regard. Screens with somules employed 96-well round-bottomed plates and 40–50 animals/well, whereas screens with adults employed 24-well flat-bottomed plates and approximately 5–7 males and 2–3 females/well. Screens employed a final compound concentration of 10 µM in DMSO (at 0.5% and 0.1% final concentrations for somules and adults, respectively). The complex and often dynamic phenotypic responses that the schistosome parasite is capable of were observed using an Axiovert A1 inverted microscope at the times indicated in the data table. Observations were codified using a defined nomenclature that involves simple “descriptors”, to convey changes in shape, motility and appearance compared to DMSO controls. Each descriptor was given a value of 1 and these were added up to yield a “severity score” with a maximum of 4. Evidence of degeneracy or death was awarded a value of 4 for adult parasites specifically, the inability to adhere to the bottom of the well using oral or ventral suckers was given a score of 1 and damage to the tegument (surface) was awarded a value of 4 on the understanding that such damage in vivo would compromise survival. Scores were averaged across the two experiments.

[3] = test system: S. mansoni somules (schistosomula, post-infective larvae); test: Phenotypic screen of S. mansoni somules (severity score); assay type: cell-based, Schistosoma mansoni; design: key to SOMULE DESCRIPTORS @ 10 µM, 24 h: Dark = dark; S = Slow; O = overactive; I = Immobile; R = shape altered from normal (either larger or smaller); Deg = degenerative changes; D = dead; pD = "partial death:" % of worms in a well that appear to be dead
Protocol: as §1, §2

`Cc1ccc(-n2cc(Cn3c(C(C)N4C(=O)c5ccccc5C4=O)nc4ccccc43)nn2)cc1` (stereo not drawn) [6z, 2-(1-(1-((1-(p-Tolyl)-1H-1,2,3-triazol-4-yl)methyl)-1H-benzo[d]imidazol-2-yl)ethyl)isoindoline-1,3-dione] was tested, and the IC50 [1] was > 100 µM, the EC50 ([1]; counter toxicity) was > 100 µM and the “ADULT SEVERITY SCORES @ 10 µM, 1 h” value ([2]; 1 h, score 0-4) was 0. The “Adult Severity Score (10 µM) 1 h” value ([2]; 1 h, score 0 to 4) was 0, the “ADULT SEVERITY SCORES @ 10 µM, 5 h” value ([2]; 5 h, score 0-4) was 0 and the “Adult Severity Score (10 µM) 5 h” value ([2]; 5 h, score 0 to 4) was 0. The “ADULT SEVERITY SCORES @ 10 µM, 24 h” value ([2]; 24 h, score 0-4) was 0, the “Adult Severity Score (10 µM) 24 h” value ([2]; 24 h, score 0 to 4) was 0 and the “SOMULE DESCRIPTORS @ 10 µM, 24 h” value ([3]; 24 h, phenotypic descriptors) was “R”. The “Somule Severity Score (10 µM) 24 h” value ([3]; 24 h, score 0 (no effect) to 4 (maximum), averaged across two experiments) was 1, the “SOMULE SEVERITY SCORES @ 10 µM, 24” value ([3]; 24 h, score 0-4) was 1 and the “SOMULE SEVERITY SCORES @ 10 µM, 48” value ([3]; 48 h, score 0-4) was 0. The “Somule Severity Score (10 µM) 48 h” value ([3]; 48 h, score 0 to 4) was 0, the “SOMULE SEVERITY SCORES @ 10 µM, 72” value ([3]; 72 h, score 0-4) was 0 and the “Somule Severity Score (10 µM) 72 h” value ([3]; 72 h, score 0 to 4) was 0.
